Source: ChEMBL document CHEMBL3997838, “Chemical constituents from Sophora tonkinensis and their glucose transporter 4 translocation activities” (Bioorg Med Chem Lett, 2017)
Active and inactive are the calls of the source. No cut-off for these calls is given here.

How the values were obtained:
[1] = biological target: T1, Solute carrier family 2, facilitated glucose transporter member 4 (Rattus norvegicus) (UniProt P19357); assay: Enhancement of GLUT4 translocation at plasma membrane of rat L6 cells expressing pIRAP-mOrange at 10 uM after 30 mins by fluorescence assay relative to control
T1 sequence (whole entry): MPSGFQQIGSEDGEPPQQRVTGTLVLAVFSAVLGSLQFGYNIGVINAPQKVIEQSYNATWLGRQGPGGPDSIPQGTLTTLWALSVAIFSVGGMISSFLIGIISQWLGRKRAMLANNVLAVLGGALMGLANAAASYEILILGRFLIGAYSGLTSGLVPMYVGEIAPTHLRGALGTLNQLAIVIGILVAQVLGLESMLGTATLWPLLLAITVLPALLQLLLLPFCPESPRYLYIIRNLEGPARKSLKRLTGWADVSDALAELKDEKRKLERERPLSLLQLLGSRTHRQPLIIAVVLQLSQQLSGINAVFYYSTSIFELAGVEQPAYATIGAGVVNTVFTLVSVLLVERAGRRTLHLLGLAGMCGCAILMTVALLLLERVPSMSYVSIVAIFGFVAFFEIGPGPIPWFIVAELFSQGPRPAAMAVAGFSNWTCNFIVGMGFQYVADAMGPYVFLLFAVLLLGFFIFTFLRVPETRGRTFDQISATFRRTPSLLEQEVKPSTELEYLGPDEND

[2] = biological target: T1, Solute carrier family 2, facilitated glucose transporter member 4 (Rattus norvegicus); assay: Enhancement of GLUT4 translocation at plasma membrane of rat L6 cells expressing pIRAP-mOrange after 30 mins by laser-scanning confocal microscopic method
[3] = biological target: T1, Solute carrier family 2, facilitated glucose transporter member 4 (Rattus norvegicus); assay: Enhancement of GLUT4 translocation at plasma membrane of rat L6 cells expressing pIRAP-mOrange at […] after 30 mins by laser-scanning confocal microscopic method relative to control

Row | SMILES | Activity [1] | fold change (FC) [1] | further results
1 | CC(=O)OC[C@H]1O[C@@H](Oc2ccc3c(c2)OC[C@H]2c4cc5c(cc4O[C@@H]32)OCO5)[C@H](O)[C@@H](O)[C@@H]1O | inactive |  | 
2 | CC(C)=CCc1cc2c(c(CC=C(C)C)c1O)O[C@H](c1ccc(O)cc1)CC2=O |  | 1.35 to 2.75 | 
3 | CC(C)=CCc1cc([C@@H]2CC(=O)c3ccc(O)c(CC=C(C)C)c3O2)cc(CC=C(C)C)c1O |  | 2.75 | Activity [2]: Dose-dependent effect; fold change (FC) [3]: 2.7
4 | CC(C)=CCc1cc([C@@H]2CC(=O)c3ccc(O)c(CC=C(C)C)c3O2)cc2c1OC(C)(C)C=C2 |  | 1.35 to 2.75 | 
5 | Oc1ccc2c(c1)OC[C@H]1c3cc4c(cc3O[C@@H]21)OCO4 | inactive |  | 
6 | CC(C)=CCc1cc([C@@H]2CC(=O)c3ccc(O)c(CC=C(C)C)c3O2)ccc1O |  | 1.35 to 2.75 | 
7 | CC(C)=CCc1c(O)c(CC=C(C)C)c2oc(-c3ccc(O)cc3)c(O)c(=O)c2c1O |  | 1.35 to 2.75 | 
8 | CC(C)=CCc1c(O)cc(O)c2c1OC[C@H]1c3cc4c(cc3O[C@@H]21)OCO4 |  | 0.79 | 
9 | CC(C)=CCc1c2c(cc3c1O[C@H](c1ccc(O)cc1O)CC3=O)C=CC(C)(C)O2 |  | 1.35 to 2.75 | 
10 | O=c1c(O)c(-c2ccc(O)c(O)c2)oc2cc(O)cc(O)c12 | inactive |  | 
11 | COc1ccc2c(c1)O[C@H]1c3ccc(O)cc3OC[C@@H]21 | inactive |  | 
12 | OC[C@H]1O[C@@H](Oc2ccc3c(c2)OC[C@H]2c4cc5c(cc4O[C@@H]32)OCO5)[C@H](O)[C@@H](O)[C@@H]1O | inactive |  | 
